Read-outs that look alike come from different tables or passages of the source. Values belong to the compound of their own block, whether it stands above or below them.
Experiments:
K562 [1] = test: Reduction in cell viability (CellTiter-Glo Luminescent Cell Viability Assay); assay type: cell-based, human; conditions: 48 hrs, read-out: Reduction in cell viability after treatment - EC50 (mean of triplicates)
Description: (§1) Cell viability is determined by the CellTiter-Glo® Luminescent Cell Viability Assay (Promega, Catalog #G7570) which is a method of estimating viable cell number based on quantitation of ATP in metabolically active cells. After cells are lysed, the mono-oxygenation of the substrate luciferin is catalyzed by the enzyme luciferase in the presence of Mg2+, ATP and molecular oxygen, resulting in the generation of a luminescent signal that is proportional to the number of viable cells in the assay wells.
(§2) To measure the viability of cells after treatment with compounds, tumor cells are plated at 2×10^4 per well in 96 well plates and incubated overnight at 37° C., with 5% CO2. Tumor cells are treated with test compound at desired concentrations in triplicate, including untreated/negative control cells. The assay plates are re-incubated for 48 hrs. At the end of the incubation period, a mixture of lysis assay buffer and substrate is added to each sample well. The luminescence in each well is measured using a microtiter plate luminometer.
(§3) MV4;11 is a human acute myeloid leukemia line characterized by the presence of a fusion transcript comprised of the MLL and AF4 genes and by the presence of an internal tandem duplication in the juxtamembrane region of the FLT-3 gene. RS4;11 is a human acute lymphoid leukemia cell line characterized by the presence of a fusion transcript comprised of the MLL and AF4 genes. REH is a human acute lymphoid leukemia (non-T; non-B) cell line characterized by the presence of a fusion transcript comprised of the TEL and AML1 genes. Kasumi 1 is a human acute myeloid leukemia line characterized by the presence of a fusion transcript comprised of the AML1 and ETO genes. K562 is a human chronic myelogenous leukemia cell line characterized by the presence of a fusion transcript comprised of the Bcr and Abl genes. […] Jurkatt is a human acute T-cell leukemia cell line. Each of the cell lines are obtained from the American Type Culture Collection (ATCC).

RS4;11 [2] = test: as above; assay type: cell-based, human; conditions: 48 hrs, read-out: Reduction in cell viability after treatment - EC50 (mean of triplicates)
Description: as §1, §2, §3

HEL 92.1.7 [3] = test: as above; assay type: cell-based, human; conditions: 48 hrs, read-out: Reduction in cell viability after treatment - EC50 (mean of triplicates)
Description: as §1, §2, §3

Jurkat [4] = test: as above; assay type: cell-based, human; conditions: 48 hrs, read-out: Reduction in cell viability after treatment - EC50 (mean of triplicates)
Description: as §1, §2, §3

Kasumi = test: as above; assay type: cell-based, human; conditions: 48 hrs, read-out: Reduction in cell viability after treatment - EC50 (mean of triplicates)
Description: as §1, §2, §3

REH [5] = test: as above; assay type: cell-based, human; conditions: 48 hrs, read-out: Reduction in cell viability after treatment - EC50 (mean of triplicates)
Description: as §1, §2, §3

MV4;11 [6] = test: as above; assay type: cell-based, human; conditions: 48 hrs, read-out: Reduction in cell viability after treatment - EC50 (mean of triplicates)
Description: as §1, §2, §3

K562 [7] = test: Caspase 3 activity (Apo-ONE Homogeneous Caspase-3/7 Assay); assay type: cell-based, human; conditions: relative to untreated controls
Source text: (§4) Apoptosis or programmed cell death is characterized by a set of biochemical reactions, one of which is the induction of caspases. Activated caspases are proteases that participate in a cascade of cleavage events that disable key enzymes responsible for cell homeostasis and repair. Caspases 3 and 7 play key effector roles in apoptosis and can be detected and measured by a fluorescent biochemical assay. The increase of Caspase-3/7 activity in cells is directly correlated to apoptotic activity. (D. W. Nicholson, et al., Nature, 376, 37-43 (1995)) The Promega Apo-ONE Homogeneous Caspase-3/7 Assay Kit is used (Catalog #G7791). The assay buffer consists of 30 mM HEPES (N-(2-hydroxyethyl)piperazine-N′-(2-ethanesulfonic acid) pH 7.4, 150 mM NaCl, 50 mM KCl, 10 mM MgCl2, 0.4 mM EGTA (ethylene glycol tetraacetic acid), 0.5% Nonidet P40 (octylphenolpoly(ethyleneglycol ether)), 0.1% CHAPS (3-[(3-Cholamidopropyl)dimethylammonio]-1-propanesulfonate hydrate and 10% sucrose, which lyses/permeabilizes cultured cells and a caspase 3/7 substrate, Z-DEVD (Z-Asp(OMe)-Glu(OMe)-Val-Asp(OMe)), coupled to a profluorescent rhodamine 110. When the buffer-substrate mixture is added to a test sample, the cleavage and subsequent removal of the DEVD peptides by caspase 3/7 activity results in intense fluorescence of the rhodamine 110 leaving group, which is detected by excitation at 490 nm. The amount of fluorescent product is proportional to the amount of caspase 3/7 cleavage activity in the sample.
(§5) To measure the apoptotic effect of test compounds, tumor cells are plated at 1×10^4 cells per well in 96 well plates and incubated overnight at 37° C., with 5% CO2. Tumor cells are treated with test compound at desired concentrations in triplicate, including untreated/negative control wells. The assay plates are re-incubated for 48 hrs. At the end of the incubation period, a mixture of the assay buffer and substrate is added to each sample well. The fluorescence in each well is measured at an excitation wavelength of 480+/−20 nm and an emission wavelength of 530+/−25 nm. The % increase of caspase activity in treated cells is calculated relative to untreated controls.
(§6) MV4;11 is a human acute myeloid leukemia line characterized by the presence of a fusion transcript comprised of the MLL and AF4 genes and by the presence of an internal tandem duplication in the juxtamembrane region of the FLT-3 gene. RS4;11 is a human acute lymphoid leukemia cell line characterized by the presence of a fusion transcript comprised of the MLL and AF4 genes. REH is a human acute lymphoid leukemia (non-T; non-B) cell line characterized by the presence of a fusion transcript comprised of the TEL and AML1 genes. Kasumi 1 is a human acute myeloid leukemia line characterized by the presence of a fusion transcript comprised of the AML1 and ETO genes. K562 is a human chronic myelogenous leukemia cell line characterized by the presence of a fusion transcript comprised of the Bcr and Abl genes. HEL 92.1.7 is a human erythroleukemia cell line characterized by the presence of a V617F mutation in the JAK2 gene. Jurkatt is a human acute T-cell leukemia cell line. Each of the cell lines are obtained from the American Type Culture Collection (ATCC). In the following tables the term “Compound 1” or “Cmpd 1” means 7-(2,5-dihydro-4-imidazo[1,2-a]pyridine-3-yl-2,5-dioxo-1H-pyrrol-3-yl)-9-fluoro-1,2,3,4-tetrahydro-2-(1-piperidinyl-carbonyl)-pyrrolo[3,2,1-jk][1,4]benzodiazepine. The GSK-3 inhibitor [(3-(2,4-dichlorophenyl)-4-(1-methyl-1H-indol-3-yl)-1H-pyrrole-2,5-dione (SB216763), Sigma-Aldrich is used as a positive comparator control in some experiments. The compound GSK-3 Inhibitor IX, (2′Z,3′E)-6-bromoindirubin-3′-oxime (“GSK3-IX”) Calbiochem, is used as a positive control in some experiments. Both SB216763 and GSK3-IX are mentioned in the Wang et al., Nature, 455, 1205-1210 (2008) paper as evidencing positive results. […]

RS4;11 [8] = test: as above; assay type: cell-based, human; conditions: relative to untreated controls
Source text: as §4, §5, §6

HEL 92.1.7 [9] = test: as above; assay type: cell-based, human; conditions: relative to untreated controls
Source text: as §4, §5, §6

Jurkat [10] = test: as above; assay type: cell-based, human; conditions: relative to untreated controls
Source text: as §4, §5, §6

Kasumi 1 = test: as above; assay type: cell-based, human; conditions: relative to untreated controls
Source text: as §4, §5, §6

REH [11] = test: as above; assay type: cell-based, human; conditions: relative to untreated controls
Source text: as §4, §5, §6

MV4;11 [12] = test: as above; assay type: cell-based, human; conditions: relative to untreated controls
Source text: as §4, §5, §6

[13] = system: MV4;11 leukemia xenografts; test: Antitumor efficacy in MV4;11 leukemia xenografts; assay type: in vivo, female CD-1 nu/nu strain mice; conditions: vehicle control 233 ± 23.2
Description: Cultured cells (ATCC) are implanted subcutaneously in the rear flank of female CD-1 nu/nu strain mice which have been acclimated for one week in the animal facility after receipt from the vendor. […] The tumors are measured 2 times per week by electronic calipers to plot growth curves. Animals are also monitored for fluctuations in body weight and survival.

EC50 (K562 [1]; Homo sapiens): 46 nM
EC50 (RS4;11 [2]; Homo sapiens): 5 nM
EC50 (Jurkat [4]; Homo sapiens): 46 nM
EC50 (MV4;11 [6]; Homo sapiens): 82 nM
Structure (SMILES): O=C1NC(=O)C(c2cnc3ccccn23)=C1c1cn2c3c(cc(F)cc13)CN(C(=O)N1CCCCC1)CC2 [Compound 1, 7-(2,5-dihydro-4-imidazo[1,2-a]pyridine-3-yl-2,5-dioxo-1H-pyrrol-3-yl)-9-fluoro-1,2,3,4-tetrahydro-2-(1-piperidinyl-carbonyl)-pyrrolo[3,2,1-jk][1,4]benzodiazepine]
EC50 (HEL 92.1.7 [3]; Homo sapiens): 34 nM
EC50 (Kasumi; Homo sapiens): 16 nM
EC50 (REH [5]; Homo sapiens): 6 nM
% Increase in Caspase 3 after treatment with Cmpd 1 (mean of triplicates) (K562 [7]; 0.0007 μM Compound 1, 48 hrs): 1057%
% Increase in Caspase 3 after treatment with Cmpd 1 (mean of triplicates) (RS4;11 [8]; 0.009 μM Compound 1, 48 hrs): 111%
% Increase in Caspase 3 after treatment with Cmpd 1 (mean of triplicates) (HEL 92.1.7 [9]; 0.120 μM Compound 1, 48 hrs): 284%
% Increase in Caspase 3 after treatment with Cmpd 1 (mean of triplicates) (Jurkat [10]; 0.370 μM Compound 1, 48 hrs): 140%
% Increase in Caspase 3 after treatment with Cmpd 1 (mean of triplicates) (Kasumi 1; 0.370 μM Compound 1, 48 hrs): 133%
% Increase in Caspase 3 after treatment with Cmpd 1 (mean of triplicates) (REH [11]; 0.0007 μM Compound 1, 48 hrs): 132%
% Increase in Caspase 3 after treatment with Cmpd 1 (mean of triplicates) (MV4;11 [12]; 0.010 μM Compound 1, 48 hrs): 188%
Tumor Volume at day 33 Mean ± Standard Error ([13]; 0.1 mg/kg IV administered twice a week, 6 cycles): 189 ± 22.3 mm^3
Tumor Volume at day 33 Mean ± Standard Error ([13]; 1 mg/kg IV administered twice a week, 6 cycles): 154 ± 15 mm^3
Tumor Volume at day 33 Mean ± Standard Error ([13]; 5 mg/kg IV administered once a week, three cycles): 167 ± 11.7 mm^3

EC50 (K562 [1]; Homo sapiens): 20000 nM
EC50 (RS4;11 [2]; Homo sapiens): 4400 nM
EC50 (Jurkat [4]; Homo sapiens): > 10000 nM
EC50 (MV4;11 [6]; Homo sapiens): 12600 nM
Structure (SMILES): Cn1cc(C2=C(c3ccc(Cl)cc3Cl)C(=O)NC2=O)c2ccccc21 [SB216763, 3-(2,4-dichlorophenyl)-4-(1-methyl-1H-indol-3-yl)-1H-pyrrole-2,5-dione]
EC50 (HEL 92.1.7 [3]; Homo sapiens): 11300 nM
EC50 (Kasumi; Homo sapiens): 10000 nM
EC50 (REH [5]; Homo sapiens): 4200 nM
% Increase in Caspase 3 after treatment with SB216763 (mean of triplicates) (K562 [7]; 20 μM SB216763, 48 hrs): 223%
% Increase in Caspase 3 after treatment with SB216763 (mean of triplicates) (RS4;11 [8]; 20 μM SB216763, 48 hrs): 117%
% Increase in Caspase 3 after treatment with SB216763 (mean of triplicates) (HEL 92.1.7 [9]; 10 μM SB216763, 48 hrs): 250%
% Increase in Caspase 3 after treatment with SB216763 (mean of triplicates) (Jurkat [10]; 10 μM SB216763, 48 hrs): 101%
% Increase in Caspase 3 after treatment with SB216763 (mean of triplicates) (Kasumi 1; 10 μM SB216763, 48 hrs): 27%
% Increase in Caspase 3 after treatment with SB216763 (mean of triplicates) (REH [11]; 20 μM SB216763, 48 hrs): 113%
% Increase in Caspase 3 after treatment with SB216763 (mean of triplicates) (MV4;11 [12]; 30 μM SB216763, 48 hrs): 83%

Structure (SMILES): O=C1Nc2cc(Br)ccc2/C1=C1/Nc2ccccc2/C1=N\O [GSK3-IX, (2′Z,3′E)-6-bromoindirubin-3′-oxime]
EC50 (K562 [1]): > 3300 nM
EC50 (RS4;11 [2]): 300 nM
EC50 (HEL 92.1.7 [3]): > 3300 nM
EC50 (Jurkat [4]): > 3300 nM
EC50 (Kasumi): 1200 nM
EC50 (REH [5]): 1100 nM
EC50 (MV4;11 [6]): 200 nM

Structure (SMILES): Nc1ccn([C@@H]2O[C@H](CO)[C@@H](O)[C@@H]2O)c(=O)n1 [Arabinosylcytosine]
Tumor Volume at day 33 Mean ± Standard Error ([13]; 30 mg/kg IP administered every day for 14 days): 129 ± 11.2 mm^3

Reference: patent US9044487B2, “Hematopoietic neoplasm chemotherapy” (Eli Lilly and Company, priority 2009, dated 2015)
